For 70 compounds, Ki results are on record in patent publication US7459450B2, “Neuropeptide receptor modulators” (Schering Corporation, priority 2004, dated 2008).

A value given as a limit tells only on which side of the number the result lay.

For one test, the target named is T1, Human NPY Y1 receptors (Homo sapiens, UniProt P25929).
T1 construct: expressed in transfected cells; host or cells: CHO cells (membrane protein)
T1 sequence (P25929 1-384): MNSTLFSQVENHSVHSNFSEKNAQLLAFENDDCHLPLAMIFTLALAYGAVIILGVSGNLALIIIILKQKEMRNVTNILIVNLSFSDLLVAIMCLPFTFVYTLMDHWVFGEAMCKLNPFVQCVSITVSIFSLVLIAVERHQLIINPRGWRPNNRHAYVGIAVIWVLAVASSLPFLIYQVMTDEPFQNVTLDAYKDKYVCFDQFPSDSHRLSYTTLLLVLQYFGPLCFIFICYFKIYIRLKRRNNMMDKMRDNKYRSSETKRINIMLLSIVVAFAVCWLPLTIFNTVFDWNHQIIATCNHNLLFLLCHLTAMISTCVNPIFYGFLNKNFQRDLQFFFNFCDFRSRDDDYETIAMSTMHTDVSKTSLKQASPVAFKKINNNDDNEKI
Briefly: NPY Receptor Binding Assay.
Settings: not given
In turn, `CSCC[C@@H]1N/C(=N/c2ccc(CCNc3nc4ccc([N+](=O)[O-])cc4s3)cc2)SC1=O` [Example 414] yielded a Ki of over 10 µM.

`O=C(O)C[C@@H]1N/C(=N/c2ccc(CCNc3nc4ccc(F)cc4s3)cc2)SC1=O` [Example 402] returned a Ki of over 10 µM.

`COc1cccc2sc(NCCc3ccc(/N=C4/N[C@@H](CC(=O)O)C(=O)S4)cc3)nc12` [Example 367] showed a Ki of over 10 µM.

Regarding `O=C(O)C[C@@H]1N/C(=N/c2ccc(CCNc3nc4cc(Cl)c(Cl)cc4s3)cc2)SC1=O` [Example 392], the Ki is over 10 µM.

With `Cc1cccc2sc(NCCc3ccc(/N=C4/N[C@@H](CC(C)C)C(=O)S4)cc3)nc12` [Example 370], the Ki is over 10 µM.

`O=C1S/C(=N\c2ccc(CCNc3nc4ccc(Cl)cc4s3)cc2)N[C@H]1Cc1ccccc1` [Example 382] registered a Ki of over 10 µM.

For the compound `CC(C)[C@@H]1N/C(=N/c2ccc(CCNc3nc4cc(Cl)c(Cl)cc4s3)cc2)SC1=O` [Example 363], the inhibitory constant (Ki) is over 10 µM.

`O=C1S/C(=N/c2cccc(CCNc3nc4ccccc4s3)c2)N[C@H]1Cc1ccccc1` [Example 406] came in with a Ki of over 10 µM.

As for `CC(C)[C@@H]1N/C(=N/c2ccc(CCNc3nc4ccc(S(C)(=O)=O)cc4s3)cc2)SC1=O` [Example 359], the Ki is over 10 µM.

In turn, `C[C@@H]1N/C(=N/c2ccc(CCNc3nc4ccccc4s3)cc2)SC1=O` [Example 400] came in with an inhibition constant (Ki) of over 10 µM.

Compound `O=C1S/C(=N/c2cccc(CCNc3nc4ccccc4s3)c2)N2CCC[C@@H]12` [Example 408] yielded an inhibition constant (Ki) of over 10 µM.

The compound `Cc1ccc2nc(NCCc3ccc(/N=C4/N[C@@H](C(C)C)C(=O)S4)cc3)sc2c1` [Example 378] had a Ki of over 10 µM.

In turn, `Cc1cccc2sc(NCCc3ccc(/N=C4/N[C@@H](C(C)C)C(=O)S4)cc3)nc12` [Example 371] had a Ki of over 10 µM.

In the case of `Cc1cccc2sc(NCCc3ccc(/N=C4/N[C@@H](CC(=O)O)C(=O)S4)cc3)nc12` [Example 372], the Ki is over 10 µM.

`O=C1CN/C(=N/c2ccc(CCNc3nc4cc(Cl)c(Cl)cc4s3)cc2)S1` [Example 391] showed a Ki of over 10 µM.

The test is the same for the next values; noted with them: Procedure A compounds, rated A/B/C.
Consider `Clc1cc2nc(NCCc3ccc(NC4=NCCS4)cc3)sc2cc1Cl` [Example 20], for which the Ki lay in the range of 1 to 10 µM.

The compound `c1ccc2sc(NCCc3ccc(N(C4=NCCS4)C4=NCCS4)cc3)nc2c1` [Example 14] returned a Ki of over 10 µM.

The same test, now with this note: Procedure B compounds, rated A/B/C.
Turning to `CCOC(=O)N1CC2(CCCC2)N=C1Nc1ccc(CCNc2nc3ccccc3s2)cc1` [Example 29], the Ki was over 10 µM.

The compound `CCOC(=O)N1C(Nc2ccc(CCNc3nc4ccccc4s3)cc2)=NC(C)C1c1ccccc1` (stereo not shown) [Example 28] gave a Ki of over 10 µM.

Staying with this test, now noted: Procedure C compounds, rated A/B/C.
Compound `O=C(O)CC[C@@H]1N=C(Nc2ccc(CCNc3nc4ccccc4s3)cc2)N(C(=O)c2ccccc2)C1=O` [Example 51] came in with a Ki of over 10 µM.

Regarding `CCOC(=O)N1C(=O)[C@H](CCC(=O)O)N=C1Nc1ccc(CCNc2nc3ccccc3s2)cc1` [Example 40], the Ki was over 10 µM.

`O=C(O)C[C@@H]1N=C(Nc2ccc(CCNc3nc4ccccc4s3)cc2)N(C(=O)c2ccccc2)C1=O` [Example 49] returned a Ki of over 10 µM.

The test is the same for the next values; noted with them: Procedure E compounds, rated A/B/C.
`Cc1ccc2nc(NCCc3ccc(/N=C4/NC(C)(C)CS4)cc3)sc2c1` [Example 227] returned a Ki of under 1 µM.

The compound `Cc1ccc2nc(NCCc3ccc(/N=C4/N[C@@H](Cc5ccccc5)CS4)cc3)sc2c1` [Example 87] came in with a Ki of 1 to 10 µM.

`CC(C)C1CCSC(Nc2ccc(CCNc3nc4ccccc4s3)cc2)=N1` (stereo not shown) [Example 334] had a Ki of under 1 µM.

As for `Cc1ccc2nc(NCCc3ccc(/N=C4/NCC(c5ccccc5)S4)cc3)sc2c1` (stereo not shown) [Example 90], the Ki was over 10 µM.

`c1ccc(CN2CCS/C2=N\c2ccc(CCNc3nc4ccccc4s3)cc2)cc1` [Example 74] yielded a Ki of over 10 µM.

In turn, `Clc1cc2nc(NCCc3ccc(/N=C4/NC(c5ccccc5)CCS4)cc3)sc2cc1Cl` (stereo not shown) [Example 66] came in with a Ki of over 10 µM.

In turn, `Fc1ccc2nc(NCCc3ccc(/N=C4/NC5(CCCC5)CS4)cc3)sc2c1` [Example 169] registered a Ki of under 1 µM.

The compound `c1ccc2sc(NCCc3ccc(NC4=NC(C5CCCCC5)CCS4)cc3)nc2c1` (stereo not shown) [Example 201] showed a Ki of under 1 µM.

Consider `c1ccc(C2CN/C(=N/c3ccc(CCNc4nc5ccccc5s4)cc3)S2)cc1` (stereo not shown) [Example 192], for which the Ki is over 10 µM.

Take `Clc1ccccc1C1CCSC(Nc2ccc(CCNc3nc4ccccc4s3)cc2)=N1` (stereo not shown) [Example 199]: the Ki was under 1 µM.

For the compound `CS(=O)(=O)c1ccc2nc(NCCc3ccc(/N=C4/N[C@@H](Cc5c[nH]cn5)CS4)cc3)sc2c1` [Example 116], the Ki fell in the range of 1 to 10 µM.

Regarding `COc1cccc2sc(NCCc3ccc(/N=C4/N[C@H]5c6ccccc6CC5S4)cc3)nc12` (stereo partly shown) [Example 325], the Ki is over 10 µM.

Compound `Clc1ccc2nc(NCCc3ccc(/N=C4/N[C@@H](Cc5c[nH]cn5)CS4)cc3)sc2c1` [Example 238] registered an inhibitory constant (Ki) of 1 to 10 µM.

`COc1ccc2nc(NCCc3ccc(/N=C4\SC[C@@H]5CCCN45)cc3)sc2c1` [Example 83] registered a Ki of over 10 µM.

In the case of `CC1(C)CS/C(=N/c2cccc(CCNc3nc4ccccc4s3)c2)N1` [Example 321], the Ki is over 10 µM.

As for `CCCC1CS/C(=N\c2ccc(CCNc3nc4ccc(Cl)cc4s3)cc2)N1` (stereo not shown) [Example 105], the Ki was under 1 µM.

On to `CCCCC1CS/C(=N\c2ccc(CCNc3nc4ccc(OC)cc4s3)cc2)N1` (stereo not shown) [Example 215], for which the Ki was under 1 µM.

Compound `CC(C)C[C@@H]1CS/C(=N\c2ccc(CCNc3nc4ccc(Cl)cc4s3)cc2)N1` [Example 100] had an inhibitory constant (Ki) of 1 to 10 µM.

Take `COc1ccc2nc(NCCc3ccc(/N=C4\SCCN4C)cc3)sc2c1` [Example 80]: the Ki is over 10 µM.

For `CCCC1CS/C(=N\c2ccc(CCNc3nc4ccc(C)cc4s3)cc2)N1` (stereo not shown) [Example 91], the Ki was under 1 µM.

As for `O=[N+]([O-])c1ccc2nc(NCCc3ccc(/N=C4/NC(c5ccccc5)CCS4)cc3)sc2c1` (stereo not shown) [Example 67], the Ki is over 10 µM.

With `COc1ccc2nc(NCCc3ccc(/N=C4/NC5(CCCC5)CS4)cc3)sc2c1` [Example 220], the Ki lay within 1 to 10 µM.

Compound `CC1CN/C(=N/c2ccc(CCNc3nc4ccccc4s3)cc2)S1` (stereo not shown) [Example 193] registered a Ki of over 10 µM.

In the case of `COc1ccc2nc(NCCc3ccc(/N=C4/NC(c5ccccc5)CCS4)cc3)sc2c1` (stereo not shown) [Example 203], the Ki is under 1 µM.

`COc1ccc2nc(NCCc3ccc(/N=C4/N[C@@H](c5ccccc5)CS4)cc3)sc2c1` [Example 217] came in with a Ki of over 10 µM.

`CCCCC1CS/C(=N\c2ccc(CCNc3nc4ccc(S(C)(=O)=O)cc4s3)cc2)N1` (stereo not shown) [Example 111]: the Ki lay in the range of 1 to 10 µM.

As to `COc1ccc2nc(NCCc3ccc(/N=C4/NCC(C)S4)cc3)sc2c1` (stereo not shown) [Example 322], the Ki was over 10 µM.

Regarding `COc1cccc2sc(NCCc3ccc(/N=C4\SCCN4C)cc3)nc12` [Example 230], the Ki is over 10 µM.

`CC1CCSC(Nc2ccc(CCNc3nc4ccccc4s3)cc2)=N1` (stereo not shown) [Example 200]: the Ki was under 1 µM.

Turning to `C[C@@H]1N/C(=N/c2ccc(CCNc3nc4ccccc4s3)cc2)SC1c1ccccc1` (stereo partly shown) [Example 191], the Ki is over 10 µM.

In turn, `Clc1cc2nc(NCCc3ccc(N=C4NCCCS4)cc3)sc2cc1Cl` [Example 72] came in with a Ki of under 1 µM.

For the compound `c1ccc(C2CCS/C(=N/c3ccccc3CCNc3nc4ccccc4s3)N2)cc1` (stereo not shown) [Example 70], the Ki is over 10 µM.

Consider `COc1cccc2sc(NCCc3ccc(/N=C4\SC5Cc6ccccc6[C@@H]5N4C)cc3)nc12` (stereo partly shown) [Example 228], for which the Ki was over 10 µM.

In the case of `Cc1cccc2sc(NCCc3ccc(/N=C4/NC(c5ccccc5)CCS4)cc3)nc12` (stereo not shown) [Example 208], the Ki was over 10 µM.

The compound `C[C@@H]1N/C(=N\c2cccc(CCNc3nc4ccccc4s3)c2)SC1c1ccccc1` (stereo partly shown) [Example 185] displayed a Ki of under 1 µM.

Compound `COc1cccc2sc(NCCc3ccc(/N=C4/NC(c5ccccc5)CCS4)cc3)nc12` (stereo not shown) [Example 206] had a Ki of over 10 µM.

Staying with this test, now noted: Procedure G compounds, rated A/B/C.
Compound `Cc1csc(Nc2ccc(CCNc3nc4ccccc4s3)cc2)n1` [Example 415] yielded a Ki of over 10 µM.

`c1ccc(-c2csc(Nc3ccc(CCNc4nc5ccccc5s4)cc3)n2)cc1` [Example 423]: the Ki is over 10 µM.

Regarding `Fc1ccc(-c2csc(Nc3ccc(CCNc4nc5ccccc5s4)cc3)n2)cc1` [Example 420], the Ki was over 10 µM.

The compound `Cc1nc(Nc2ccc(CCNc3nc4ccccc4s3)cc2)sc1C` [Example 428] registered a Ki of over 10 µM.

Compound `CNC(=O)c1sc(Nc2ccc(CCNc3nc4ccccc4s3)cc2)nc1C` [Example 418] had a Ki of over 10 µM.

For the compound `Cc1nc(Nc2ccc(CCNc3nc4ccccc4s3)cc2)sc1C(=O)N(C)C` [Example 437], the Ki was over 10 µM.

Staying with this test, now noted: Procedure H compounds, rated A/B/C.
As for `O=C1CSC(Nc2ccc(CCNc3nc4ccccc4s3)cc2)=N1` [Example 439], the Ki is over 10 µM.

The same test, now with this note: Procedure I compounds, column head blank, rated A/B/C.
`c1ccc(C2CCCCC(Nc3ccc(CCNc4nc5ccccc5s4)cc3)=N2)cc1` (stereo not shown) [Example 448] displayed a Ki of 1 to 10 µM.

Staying with this test, now noted: Table 1, rated A/B/C.
For `COc1ccc(C2CCSC(Nc3ccc(CCNc4nc5ccccc5s4)cc3)=N2)cc1` (stereo not shown) [Example 3], the Ki is under 1 µM.

With `CC(C)CC1CCSC(Nc2ccc(CCNc3nc4ccccc4s3)cc2)=N1` (stereo not shown) [Example 12], the Ki is under 1 µM.

In turn, `Clc1cccc(C2CCSC(Nc3ccc(CCNc4nc5ccccc5s4)cc3)=N2)c1` (stereo not shown) [Example 4] registered a Ki of under 1 µM.

As for `Clc1ccc(C2CCSC(Nc3ccc(CCNc4nc5ccccc5s4)cc3)=N2)cc1` (stereo not shown) [Example 2], the Ki was under 1 µM.

As a reminder, the Ki is a measure of affinity in units of concentration, obtained from inhibition or displacement. Higher therefore signals a looser hold on the target.
